Source: patent US7396837B2, “Antitumoral analogs of lamellarins” (Pharma Mar, S.A.U., priority 2002, dated 2008)
Where two headings read alike, the source gives them in different places.

Legend:
Type in all cases: cell-based
SK-BR-3 = test: SRB colorimetric cell growth inhibition assay, SK-BR-3; settings: for GI50: GI=growth inhibition, read-out: GI50 SK-BR-3; for CC50: cell killing (cytotoxic effect), read-out: LC50 SK-BR-3
Description: (§1) The finality of these assays is to interrupt the growth of an “in vitro” tumor cell culture by means a continued exhibition of the cells to the sample to be testing.
(§2) A colorimetric type of assay, using sulforhodamine B (SRB) reaction has been adapted for a quantitative measurement of cell growth and viability (following the technique described by P. A. Skehan, et al., J. Natl. Cancer Inst. 1990, 82, 1107-1112).
(§3) This form of assay employs 96 well cell culture microplates of 9 mm diameter (T. Mosmann et al., J. of Immunological Methods 1983, 65, 55-63; G. T. Faircloth et al., J. of Tissue and Culture Methods 1988, 11, 201-205).
(§4) Most of the cell lines are obtained from American Type Culture Collection (ATCC) derived from different human cancer types.
(§5) The values for mean +/− SD of data from triplicate wells are calculated. Some parameters for cellular responses can be calculated: GI=growth inhibition, TGI=total growth inhibition (cytostatic effect) and LC=cell killing (cytotoxic effect).

IGROV-ET = test: SRB colorimetric cell growth inhibition assay, IGROV-ET (ET-743 resistant); settings: IGROV-ET; for GI50: GI=growth inhibition, read-out: GI50 IGROV-ET; for CC50: cell killing (cytotoxic effect), read-out: LC50 IGROV-ET
Description: as §1, §2, §3, §4, §5

HT-29 = test: SRB colorimetric cell growth inhibition assay, HT-29; settings: for GI50: GI=growth inhibition, read-out: GI50 HT-29; for CC50: cell killing (cytotoxic effect), read-out: LC50 HT-29
Description: as §1, §2, §3, §4, §5

DU-145 = test: SRB colorimetric cell growth inhibition assay, DU-145; settings: for GI50: GI=growth inhibition, read-out: GI50 DU-145; for CC50: cell killing (cytotoxic effect), read-out: LC50 DU-145
Description: as §1, §2, §3, §4, §5

SK-MEL-28 = test: SRB colorimetric cell growth inhibition assay, SK-MEL-28; settings: for GI50: GI=growth inhibition, read-out: GI50 MEL-28; for CC50: cell killing (cytotoxic effect), read-out: LC50 MEL-28
Description: as §1, §2, §3, §4, §5

A-549 = test: SRB colorimetric cell growth inhibition assay, A-549; settings: for GI50: GI=growth inhibition, read-out: GI50 A-549; for CC50: cell killing (cytotoxic effect), read-out: LC50 A-549; for IC (TGI): total growth inhibition (cytostatic effect), read-out: TGI A-549
Description: as §1, §2, §3, §4, §5

HeLa = test: SRB colorimetric cell growth inhibition assay, HeLa; settings: Homo sapiens, HeLa; for GI50: GI=growth inhibition, read-out: GI50 HELA; for CC50: read-out: LC50 HELA; for IC (TGI): read-out: TGI HELA
Description: as §1, §2, §3, §4, §5

IGROV = test: SRB colorimetric cell growth inhibition assay, IGROV; settings: IGROV; for GI50: GI=growth inhibition, read-out: GI50 IGROV; for CC50: cell killing (cytotoxic effect), read-out: LC50 IGROV
Description: as §1, §2, §3, §4, §5

HeLa-APL = test: SRB colorimetric cell growth inhibition assay, HeLa-APL (aplidine resistant); settings: Homo sapiens; for GI50: read-out: GI50 HELA-APL; for CC50: read-out: LC50 HELA-APL; for IC (TGI): read-out: TGI HELA-APL
Description: as §1, §2, §3, §4, §5

LoVo = test: SRB colorimetric cell growth inhibition assay, LoVo; settings: for GI50: GI=growth inhibition, read-out: GI50 LOVO; for CC50: cell killing (cytotoxic effect), read-out: LC50 LOVO
Description: as §1, §2, §3, §4, §5

LoVo-Dox = test: SRB colorimetric cell growth inhibition assay, LoVo-Dox (MDR); settings: LOVO-DOX; for GI50: GI=growth inhibition, read-out: GI50 LOVO-DOX; for CC50: cell killing (cytotoxic effect), read-out: LC50 LOVO-DOX
Description: as §1, §2, §3, §4, §5

PANC-1 = test: SRB colorimetric cell growth inhibition assay, PANC-1; settings: for GI50: GI=growth inhibition, read-out: GI50 PANC-1; for CC50: cell killing (cytotoxic effect), read-out: LC50 PANC-1
Description: as §1, §2, §3, §4, §5

[1] = Homo sapiens, SK-MEL-28, MEL-28
[2] = total growth inhibition (cytostatic effect)

COc1cc(-c2c3c4cc(OC)c(OC(=O)CCC5CCCCC5)cc4oc(=O)c3n3ccc4cc(OC(=O)CCC5CCCCC5)c(OC)cc4c23)ccc1OC(=O)CCC1CCCCC1 [Compound 12]
GI50 (SK-BR-3; Homo sapiens, SK-BR-3, SK-BR-3): 0.698 µM | CC50 (SK-BR-3; Homo sapiens, SK-BR-3, SK-BR-3): 10.9 µM | IC (TGI) (SK-BR-3; Homo sapiens, SK-BR-3, SK-BR-3, total growth inhibition (cytostatic effect), read-out: TGI SK-BR-3): 3.45 µM | GI50 (IGROV-ET; Homo sapiens): 10.9 µM | CC50 (IGROV-ET; Homo sapiens): 10.9 µM | IC (TGI) (IGROV-ET; Homo sapiens, total growth inhibition (cytostatic effect), read-out: TGI IGROV-ET): 10.9 µM | GI50 (HT-29; Homo sapiens, HT-29, HT-29): 0.0811 µM | CC50 (HT-29; Homo sapiens, HT-29, HT-29): 10.9 µM | IC (TGI) (HT-29; Homo sapiens, HT-29, HT-29, total growth inhibition (cytostatic effect), read-out: TGI HT-29): 0.841 µM | GI50 (DU-145; Homo sapiens, DU-145, DU-145): 0.249 µM | CC50 (DU-145; Homo sapiens, DU-145, DU-145): 7.07 µM | IC (TGI) (DU-145; Homo sapiens, DU-145, DU-145, total growth inhibition (cytostatic effect), read-out: TGI DU-145): 1.43 µM | GI50 (SK-MEL-28; [1]): 1.77 µM | CC50 (SK-MEL-28; [1]): 10.9 µM | IC (TGI) (SK-MEL-28; Homo sapiens, SK-MEL-28, MEL-28, total growth inhibition (cytostatic effect), read-out: TGI MEL-28): 5.98 µM | GI50 (A-549; Homo sapiens, A549, A-549): 1.2 µM | CC50 (A-549; Homo sapiens, A549, A-549): 10.9 µM | IC (TGI) (A-549; Homo sapiens, A549, A-549): 6.64 µM | GI50 (HeLa): 1.66 µM | CC50 (HeLa; cell killing (cytotoxic effect)): 10.9 µM | IC (TGI) (HeLa; [2]): 7.5 µM | GI50 (IGROV; Homo sapiens): 1.42 µM | CC50 (IGROV; Homo sapiens): 8.01 µM | IC (TGI) (IGROV; Homo sapiens, total growth inhibition (cytostatic effect), read-out: TGI IGROV): 3.38 µM | GI50 (HeLa-APL; HELA-APL, GI=growth inhibition): 3.66 µM | CC50 (HeLa-APL; HELA-APL, cell killing (cytotoxic effect)): 10.9 µM | IC (TGI) (HeLa-APL; HELA-APL, total growth inhibition (cytostatic effect)): 10.9 µM | GI50 (LoVo; Homo sapiens, LoVo): 1.83 µM | CC50 (LoVo; Homo sapiens, LoVo): 10.9 µM | IC (TGI) (LoVo; Homo sapiens, LoVo, total growth inhibition (cytostatic effect), read-out: TGI LOVO): 7.41 µM | GI50 (LoVo-Dox; Homo sapiens): 10.9 µM | CC50 (LoVo-Dox; Homo sapiens): 10.9 µM | IC (TGI) (LoVo-Dox; Homo sapiens, total growth inhibition (cytostatic effect), read-out: TGI LOVO-DOX): 10.9 µM | GI50 (PANC-1; Homo sapiens, PANC-1, PANC-1): 1.62 µM | CC50 (PANC-1; Homo sapiens, PANC-1, PANC-1): 10.9 µM | IC (TGI) (PANC-1; Homo sapiens, PANC-1, PANC-1, total growth inhibition (cytostatic effect), read-out: TGI PANC-1): 8.94 µM

COc1cc2ccn3c(c(-c4ccc(OC(=O)[C@@H](N)Cc5ccccc5)c(OC)c4)c4c5cc(OC)c(OC(=O)[C@@H](N)Cc6ccccc6)cc5oc(=O)c43)c2cc1OC [Compound 13]
GI50 (SK-BR-3; SK-BR-3): 0.0454 µM | CC50 (SK-BR-3; SK-BR-3): 10.2 µM | TGI SK-BR-3 (SK-BR-3; SK-BR-3, total growth inhibition (cytostatic effect)): 1.13E−07 Molar | GI50 (IGROV-ET; Homo sapiens): 1.96 µM | CC50 (IGROV-ET): 12.4 µM | TGI IGROV-ET (IGROV-ET; [2]): 7.86E−06 Molar | GI50 (HT-29; HT-29): 3.22 µM | CC50 (HT-29; HT-29): 12.4 µM | TGI HT-29 (HT-29; HT-29, total growth inhibition (cytostatic effect)): 6.39E−06 Molar | CC50 (DU-145; DU-145): 12.4 µM | TGI DU-145 (DU-145; DU-145, total growth inhibition (cytostatic effect)): 3.64E−06 Molar | GI50 (DU-145; Homo sapiens, DU-145, DU-145): 0.832 µM | GI50 (SK-MEL-28; MEL-28): 3.11 µM | CC50 (SK-MEL-28; MEL-28): 12.4 µM | TGI MEL-28 (SK-MEL-28; MEL-28, total growth inhibition (cytostatic effect)): 1.09E−05 Molar | GI50 (A-549; A-549): 0.906 µM | CC50 (A-549; A-549): 12.4 µM | IC (TGI) (A-549; Homo sapiens, A549, A-549): 12.4 µM | CC50 (HeLa): 12.4 µM | IC (TGI) (HeLa): 9.63 µM | GI50 (HeLa): 1.83 µM | GI50 (IGROV; Homo sapiens): 1.29 µM | CC50 (IGROV): 12.4 µM | TGI IGROV (IGROV; [2]): 4.79E−06 Molar | GI50 (HeLa-APL): 2.6 µM | CC50 (HeLa-APL): 12.4 µM | IC (TGI) (HeLa-APL): 12.1 µM | GI50 (LoVo; LOVO): 0.754 µM | CC50 (LoVo; LOVO): 9.02 µM | TGI LOVO (LoVo; LOVO, total growth inhibition (cytostatic effect)): 2.35E−06 Molar | GI50 (LoVo-Dox): 0.675 µM | CC50 (LoVo-Dox): 12.4 µM | TGI LOVO-DOX (LoVo-Dox; [2]): 3.42E−06 Molar | GI50 (PANC-1; PANC-1): 2.43 µM | CC50 (PANC-1; PANC-1): 12.4 µM | TGI PANC-1 (PANC-1; PANC-1, total growth inhibition (cytostatic effect)): 1.24E−05 Molar
